Consider 5 compounds from ChEMBL document CHEMBL3714736, “Heterocyclic compounds for the inhibition of PASK” (2015).

The term IC50 denotes the point on the concentration scale where inhibition reaches its midpoint. By inhibition in vivo is commonly meant the relative decrease from the control value, in per cent. Read a low inhibition in vivo as a response near the control.

Data set [1] addresses T1, PAS domain-containing serine/threonine-protein kinase (Homo sapiens, UniProt Q96RG2). Kind of data set: Inhibition of human recombinant PASK using Ulight-peptide substrate incubated for 2 hrs by TR-FRET assay.
In data set [2] the target is T1, PAS domain-containing serine/threonine-protein kinase. Kind of data set: Inhibition of N-terminal GST-tagged human recombinant PASK kinase domain (879 to 1323 residues) expressed in insect cells using MBP protein substrate incubated for 120 mins in presence of [33P]ATP by scintillation counting based radiochemical assay.
In data set [3] the test system is Rattus norvegicus. In words: Increase in liver weight in high fructose diet fed Sprague-Dawley rat with fast/re-feed at 30 mg/kg, po dosed once daily for 7 days. The class given is ADME, organism-based. Particulars: in vivo, 168 h.
The test system of data set [4] is Mus musculus. Kind of data set: Reduction in liver weight in high-fat diet fed C57B16 mouse with fast/re-feed at 100 mg/kg, po daily for 3 days. The class given is functional. Particulars: for inhibition in vivo at 100 mg/kg: 72 h.
In data set [5] the test system is Rattus norvegicus. Kind of data set: Reduction in plasma glucose level in high fructose diet fed Sprague-Dawley rat with fast/re-feed at 30 mg/kg, po dosed once daily for 7 days by colorimetric assay. The class given is functional.
Data set [6] concerns Rattus norvegicus. Kind of data set: Reduction in body weight in high fructose diet fed Sprague-Dawley rat with fast/re-feed at 30 mg/kg, po dosed once daily for 7 days. The data set is classed as functional, organism-based.
For data set [7], the system named is Mus musculus. In words: Reduction in liver weight in high-fat diet fed C57B16 mouse with fast/re-feed at 30 mg/kg, po daily for 3 days. The data set is classed as functional.
The subject of data set [8] is Mus musculus. Kind of data set: Reduction in plasma glucose level in high-fat diet fed C57B16 mouse with fast/re-feed at 30 to 100 mg/kg, po daily for 3 days by colorimetric assay. The class given is functional, organism-based.
Data set [9] has as its system Mus musculus. In words: Reduction in plasma insulin level in fasted fed C57B16 mouse at 100 mg/kg, po daily for 3 days by colorimetric assay. The class given is functional. Particulars: 72 h.
Data set [10] relates to Rattus norvegicus. In words: Reduction in liver weight in high fructose diet fed Sprague-Dawley rat with fast/re-feed at 30 and 100 mg/kg, po dosed once daily for 7 days. The data set is classed as functional, organism-based.
Data set [11] concerns Mus musculus. In words: Reduction in body weight in high-fat diet fed C57B16 mouse with fast/re-feed at 30 to 100 mg/kg, po daily for 3 days. The class given is functional, organism-based.
Data set [12] has as its system Rattus norvegicus. In words: Reduction in plasma glucose level in high fructose diet fed Sprague-Dawley rat with fast/re-feed at 30 and 100 mg/kg, po dosed once daily for 7 days by colorimetric assay. The data set is classed as functional, organism-based.
In data set [13] the test system is Rattus norvegicus. In words: Reduction in plasma cholesterol level in high fructose diet fed Sprague-Dawley rat with fast/re-feed at 30 and 100 mg/kg, po dosed once daily for 7 days by colorimetric assay. The class given is functional, organism-based.
Data set [14] concerns Mus musculus. In words: Reduction in plasma glucose level in fasted C57B16 mouse at 30 to 100 mg/kg, po daily for 3 days by colorimetric assay. The class given is functional, organism-based.
Data set [15] deals with Mus musculus. In words: Reduction in liver weight in high-fat diet fed C57B16 mouse with fast/re-feed at 30 to 100 mg/kg, po daily for 3 days. The class given is functional.
The subject of data set [16] is Rattus norvegicus. In words: Reduction in body weight in high fructose diet fed Sprague-Dawley rat with fast/re-feed at 30 and 100 mg/kg, po dosed once daily for 7 days. The data set is classed as functional, organism-based.
For data set [17], the system named is Mus musculus. Kind of data set: Reduction in plasma insulin level in high-fat diet fed C57B16 mouse with fast/re-feed at 30 to 100 mg/kg, po daily for 3 days by colorimetric assay. The data set is classed as functional, organism-based.
Data set [18] concerns Rattus norvegicus. Kind of data set: Reduction in plasma triglyceride level in high fructose diet fed Sprague-Dawley rat with fast/re-feed at 30 and 100 mg/kg, po dosed once daily for 7 days by colorimetric assay. The data set is classed as functional, organism-based.
The test system of data set [19] is Rattus norvegicus. In words: Reduction in liver weight in high fructose diet fed Sprague-Dawley rat with fast/re-feed at 100 mg/kg, po dosed once daily for 7 days. The class given is functional. Particulars: 168 h.
Data set [20] concerns Mus musculus. Kind of data set: Reduction in plasma insulin level in fasted fed C57B16 mouse at 30 mg/kg, po daily for 3 days by colorimetric assay. To be noted: 72 h. The data set is classed as functional.
Data set [21] relates to Mus musculus. Kind of data set: Reduction in plasma glucose level in high-fat diet fed C57B16 mouse with fast/re-feed at 100 mg/kg, po daily for 3 days by colorimetric assay. Particulars: 72 h. The data set is classed as functional.

Activity calls are given as the source filed them. The calls are words filed in the database; no cut-off is given here.

T1 sequence (Q96RG2 whole entry, the tested form may be a part): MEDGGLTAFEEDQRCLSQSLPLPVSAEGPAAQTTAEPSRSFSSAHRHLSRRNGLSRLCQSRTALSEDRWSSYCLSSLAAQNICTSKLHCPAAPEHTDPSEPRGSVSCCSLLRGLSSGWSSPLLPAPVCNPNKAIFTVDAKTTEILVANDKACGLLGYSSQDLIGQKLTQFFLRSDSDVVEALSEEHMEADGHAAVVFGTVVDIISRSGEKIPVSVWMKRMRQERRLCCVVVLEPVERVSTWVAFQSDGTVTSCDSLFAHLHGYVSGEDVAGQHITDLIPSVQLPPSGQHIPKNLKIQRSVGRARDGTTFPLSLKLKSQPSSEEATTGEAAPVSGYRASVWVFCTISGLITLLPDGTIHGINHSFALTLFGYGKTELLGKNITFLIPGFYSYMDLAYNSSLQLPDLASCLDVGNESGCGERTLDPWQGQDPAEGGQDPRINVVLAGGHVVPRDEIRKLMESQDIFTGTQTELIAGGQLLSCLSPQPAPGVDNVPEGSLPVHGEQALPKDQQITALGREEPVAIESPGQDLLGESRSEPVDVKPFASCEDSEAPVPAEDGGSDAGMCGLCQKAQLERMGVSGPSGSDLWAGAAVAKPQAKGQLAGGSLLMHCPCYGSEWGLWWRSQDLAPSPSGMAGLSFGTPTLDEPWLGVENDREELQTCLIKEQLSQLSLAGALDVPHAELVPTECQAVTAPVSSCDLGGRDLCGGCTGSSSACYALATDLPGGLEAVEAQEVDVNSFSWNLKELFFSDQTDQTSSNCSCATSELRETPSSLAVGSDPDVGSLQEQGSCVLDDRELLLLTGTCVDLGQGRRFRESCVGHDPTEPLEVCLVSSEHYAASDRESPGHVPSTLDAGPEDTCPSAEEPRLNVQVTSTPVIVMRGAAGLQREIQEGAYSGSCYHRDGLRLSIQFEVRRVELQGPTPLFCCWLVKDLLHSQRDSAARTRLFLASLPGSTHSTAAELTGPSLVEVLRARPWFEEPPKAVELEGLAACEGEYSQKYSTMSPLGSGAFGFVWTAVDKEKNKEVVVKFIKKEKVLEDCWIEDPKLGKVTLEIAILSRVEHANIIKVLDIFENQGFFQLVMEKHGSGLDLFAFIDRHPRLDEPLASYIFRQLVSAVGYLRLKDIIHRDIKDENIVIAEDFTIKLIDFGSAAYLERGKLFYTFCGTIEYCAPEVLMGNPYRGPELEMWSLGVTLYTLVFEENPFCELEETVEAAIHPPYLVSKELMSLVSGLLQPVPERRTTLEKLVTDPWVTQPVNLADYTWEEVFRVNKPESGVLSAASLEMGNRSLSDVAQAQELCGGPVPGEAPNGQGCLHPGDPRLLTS

On to `CC(C)N(C)c1nc2cc(C(=O)O)ccc2nc1-c1ccc2nccn2c1`, for which the IC50 in [1] is not above 10 µM.
On to `CN(C1CCN(c2nc3cc(C(=O)O)ccc3nc2-c2ccccc2)CC1)S(C)(=O)=O`, for which, in data set [2], the IC50 was not above 10 µM.
`O=C(O)c1ccc2nc(-c3ccc4c(c3)OCO4)c(N3CCCc4ccccc43)nc2c1`: the IC50 in data set [1] was not above 10 µM.
For `CC(C)OC(=O)C1=CN(C(=O)c2ccc(F)c(F)c2)CC(C)(C)c2c1[nH]c1ccccc21` [TUROFEXORATE ISOPROPYL], the Activity with Rattus norvegicus [3] is reported as 15%. Besides, at 100 mg/kg the inhibition in vivo with Mus musculus [4] was 7%. Moreover, the inhibition entry in the data set on Rattus norvegicus [5] was “inactive”. The result in the data set with Rattus norvegicus [6] was inactive.
Consider `CC(C)N(C)c1nc2cc(C(=O)O)ccc2nc1-c1ccc(F)cc1`, for which the inhibition entry in the data set with Mus musculus [7], with Mus musculus [8], in the data set with Mus musculus [11], with Rattus norvegicus [12], in the data set with Mus musculus [4] and in the data set on Mus musculus [14] was “Dose-dependent effect” each time. For the same compound, the inhibition result in the data set on Mus musculus [15], in the data set with Mus musculus [17] and with Rattus norvegicus [18] was “Dose-dependent effect” in each case. The values for the inhibition in vivo at 30 mg/kg in the data set with Mus musculus [7] (72 h) and with Mus musculus [20] were 7% and not above 26%, respectively. Further, the inhibition in vivo at 100 mg/kg was not above 26% in the data set with Mus musculus [9], 7% in the data set on Mus musculus [4], 4% in the data set on Rattus norvegicus [19] and not above 27% with Mus musculus [21]. Moreover, the inhibition entry in the data set on Rattus norvegicus [10], with Rattus norvegicus [13] and in the data set on Rattus norvegicus [16] was “Active” throughout. Moreover, the “inhibition (INH)” value with Mus musculus [15] is listed as 7%.
